Assay results as given in patent US20220409617A1, “Drug Formulations and Methods of Treatment for Metabolic Disorders” (The Regents of the University of California, priority 2019, published 2022).

Tests used:
3T3-L1 adipocytes = experiment: Insulin-stimulated 2-deoxyglucose uptake; format: cell-based, mouse; details: 3 h, 893 10 μM, MK-2206 2 μM
Protocol: 3T3-L1 cells were maintained in DMEM with 10% FBS and 1% penicillin-streptomycin until induced to differentiate. 3T3-L1 pre-adipocytes were differentiated as described in (M. P. Valley, et al., Anal. Biochem. 505: 43-50, 2016, the disclosure of which is incorporated herein by reference) with slight modifications. Briefly, pre-adipocytes were grown to confluence. After 2 d, cells were induced with maintenance media containing 500 μM IBMX (15879, Sigma-Aldrich, St. Louis, Mo.), 1 μM dexamethasone (D4902, Sigma-Aldrich), 5 μg/mL bovine insulin (10516, Sigma-Aldrich), and 5 μM troglitazone (50-115-0786, ApexBio). Media was changed every 2-3 d for 7 d. On day 7 post-induction, media was changed to maintenance media+5 μg/mL bovine insulin. On day 9 post-induction, media was changed to maintenance media. Mature adipocytes were used 12-14 d post-induction for all experiments. LSL-KrasG12D mouse embryonic fibroblasts (MEFs) with and without Cre-mediated deletion of the STOP cassette were obtained from David Tuveson (Cold Spring Harbor Laboratory, Cold Spring Harbor N.Y., USA) in 2000. p53^flox/flox MEFs were derived in house (2015) from C57BL/6 mice using standard techniques and immortalized by transient expression of Cre recombinase and deletion of p53. MEFs were cultured and maintained in DMEM with 10% FBS and 1% penicillin-streptomycin. […]

[1] = Fasting blood glucose and oral glucose tolerance test in HFD-fed mice; format: in vivo, mouse
Protocol: Mice were fasted for 6 h prior to blood glucose testing at ZT10. When sphingolipid-like compound 893 treatment was combined with an OGTT, mice were treated at ZT6. Once baseline fasting blood glucose was determined using a handheld blood glucose meter (Prodigy Diabetes Care, Charlotte, N.C.) and a drop of blood collected from a tail vein nick, mice were gavaged with an oral glucose solution (20% w/v in water, 2 g/kg bodyweight) and blood glucose measured in a drop of tail vein blood at 0, 15, 30, 60 and 120 min. The area under the curve was determined using Graphpad Prism software.

For CCCCCCCCc1ccc([C@H]2CCN[C@@H]2CO)cc1.Cl [compound 893], the Insulin-stimulated glucose uptake (3T3-L1 adipocytes) was “but not sphingolipid-like compound 893, impeded insulin-stimulated glucose uptake in adipocytes”, the “Fasting glucose and glucose disposal (OGTT)” value ([1]; 60 mg/kg three days a week for 25 days) was “intermediate effect” and the “Fasting glucose and glucose disposal (OGTT)” value ([1]; 120 mg/kg three days a week for 25 days) was “normalized both fasting glucose and glucose disposal”.
